The values that follow come from patent publication US20180228780A1, “3-(1H-PYRROLO[2,3-C]PYRIDIN-2-YL)-1H-INDAZOLES AND THERAPEUTIC USES THEREOF” (Samumed, LLC, priority 2015, published 2018).

Broadly, the inhibition is the drop in the measured response relative to a control, in per cent.

The structures appear in SMILES notation.

Holding throughout (format): cell-based
One experiment deals with IL-6 (THP-1 cells). Briefly: IL-6 inhibition in THP-1 monocytes (HTRF). As to conditions: Homo sapiens; IL-6 inhibition, THP-1 cells, HTRF, 10-point dose-response starting from 10 μM. The procedure, abridged: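 THP-1 cells serum-reduced (1% FBS, 24 h), plated 5000/well, stimulated with 500 ng/mL […] after 2 h and incubated a further 22 h at 37 °C. Secreted IL-6 quantified by HTRF (665/620 nm ratio), normalized to DMSO; EC50 from four-parameter fit, duplicates.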
A general note: Time-resolved FRET reads energy transfer from a long-lived donor to a nearby acceptor.

The test system of experiment [1] is primary human mesenchymal stem cells (hMSCs). Briefly: Induction of chondrogenesis in hMSCs (nodule imaging, Rhodamine B / Nile Red). As to conditions: 6 days. The procedure, abridged: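 Primary hMSCs at passage 3-6 were treated with compound; nodule area per well was normalized to the mean of 3 DMSO wells, averaged over 2-3 replicates, and the concentration giving 50% chondrogenesis relative to TGF-β3 control, plus maximum activity and its dose, was derived.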

In another experiment the test system is SW480 colon cancer cells. As to the kind of experiment: Cell viability assay (CellTiter-Blue) in SW480 colon cancer cells. As to conditions: Homo sapiens, 96 h; SW480 cell viability, four days incubation. The procedure, abridged:
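Fluorescence from resazurin reduced to resorufin by metabolically active cells was the read-out, taken after ~3 h with CellTiter-Blue.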

In experiment [2] the test system is Primary human fibroblasts derived from IPF patients (LL29 cells). As to the kind of experiment: Inhibition of the fibrotic process: αSMA staining in TGF-β1-treated LL29 fibroblasts. As to conditions: Fibroblast. Summed up:
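LL29 IPF-patient lung fibroblasts plated in F12 with 1% FBS, treated with TGF-β1 plus compound; TGF-β1/DMSO wells served as controls. After 4 days incubation, SYTOX green (1 μM final) added for 30 min at room temperature; αSMA staining used as fibrosis read-out.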

The subject of experiment [3] is Wnt activity (Sp5-Luc reporter, SW480 colon carcinoma cells). Briefly: Screening assay for Wnt activity: Sp5-Luc reporter gene assay in SW480 cells. As to conditions: Homo sapiens; SW480 Sp5-Luc reporter, overnight incubation. Summed up: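 SW480 colon carcinoma cells stably carrying Sp5 promoter (eight TCF/LEF sites)-driven firefly luciferase, plated at 4,000 cells/well in 1% FBS medium and incubated overnight at 37° C. Luminescence normalised to DMSO-only cells; EC50 from four-parameter variable-slope nonlinear regression.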
Background: In a reporter assay the amount or activity of a reporter protein is the signal.

Regarding `c1cncc(-c2ccc3[nH]nc(-c4cc5c(-c6cccnc6)cncc5[nH]4)c3c2)c1` [Compound 88, 5-(Pyridin-3-yl)-3-(4-(pyridin-3-yl)-1H-pyrrolo[2,3-c]pyridin-2-yl)-1H-indazole], the EC50 in the experiment on IL-6 (THP-1 cells) was 105 nM; in experiment [1] (concentration required to induce 50% levels of chondrogenesis vs TGF-β3, read-out: Conc (nM) of 50% TGF-β3 activity), 100 nM; in the experiment on SW480 colon cancer cells it was 495 nM; in experiment [2] (96 h, LL29 cells, TGF-β1 20 ng/mL, 4 days, % αSMA-positive cells), > 10000 nM; in experiment [3], 310 nM. Besides, the Emax in experiment [1] (relative to TGF-β3 (10 ng/mL) positive control, read-out: Max. Activity as % TGF-β3 activity) was determined as 58%. For the same compound, in experiment [2] (read-out: percent inhibition at 10 μM), the inhibition at 10 µM was 0%.
